# Source: US8178506B2, “Oligomeric compounds and compositions for use in modulation of small non-coding RNAs” (Regulus Therapeutics Inc., priority 2003, dated 2012)
# e = 2'-O-(2-methoxyethyl) (MOE); d = 2'-deoxy (DNA)
# Legend:
# IL-6 mRNA = IL-6 mRNA in LPS-activated primary murine macrophages; format: cell-based, mouse; settings: average of 3 treatments
# In short: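 Thioglycollate-elicited peritoneal macrophages from female C57Bl/6 mice, transfected with miRNA-targeting oligomeric compounds via FuGENE 6 (1 μL per 100 nM compound) for ~24–28 h at 37 °C, optionally primed 4 h with 100 ng/mL IFN-gamma, then stimulated 24 h with 100 ng/mL LPS. IL-6 mRNA quantified by real-time PCR.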
# [1] = test system: BJ, B16-F10, T47D, T47Dp53 and HeLa cells; assay: Cell cycle assay (propidium iodide flow cytometry), cell line panel; format: cell-based; settings: 150 nM, 72 hours (Table 29)
# [2] = test system: mir-143 miRNA binding site; assay: GFP mir-143 sensor reporter in T-REx-HeLa cells; format: cell-based, human; settings: T-REx-HeLa, 24 hours post-transfection
# Source text: Reporter systems have been developed herein to assess the ability of miRNA mimics to provoke a gene silencing response and to assess whether antisense oligomeric compounds targeting miRNAs can inhibit gene silencing activity. The T-REx™-HeLa cell line (Invitrogen Corp., Carlsbad, Calif.) was used for either stable or transient transfections with plasmids constitutively expressing miRNAs, pre-miRNAs, pri-miRNAs or mimics thereof, and, in some cases, antisense oligomeric compounds targeting the expressed miRNA were also transfected into the cells. It is understood that other mammalian cells lines can also be used in this reporter system. T-REx™-HeLa cells were routinely cultured in DMEM, high glucose (Invitrogen Corporation, Carlsbad, Calif.), supplemented with 10% fetal bovine serum (Invitrogen Corporation). […] Cells were harvested when they reached 90% confluence, and on the day before transfection with expression or reporter plasmids (described in detail below), the T-REx™-HeLa cells were seeded onto 24-well plates at 50,000 cells/well. The following day, cells were transfected according to standard published procedures with various combinations of plasmids using 2 μg Lipofectamine™ 2000 Reagent (Invitrogen) per μg of plasmid DNA. When transfecting oligomeric compounds, 1-3 μg of Lipofectamine™ 2000 Reagent was used per 100 nM oligomeric compound.
# Plasmids used are as follows: The pcDNA3.1©/NT-GFP (Invitrogen) plasmid, containing a CMV promoter controlling expression of a GFP reporter sequence at the N-terminus of the transcription start site was used as a control plasmid. The pcDNA3.1©/NT-GFP-mir-143 sensor plasmid contains (in addition to the elements above) three 22-nucleotide sites encoding the mir-143 miRNA binding site, downstream of the GFP coding sequence and upstream of the polyadenylation signal. The pCR3-pri-mir-143 plasmid (“pri-mir-143”) is a CMV promoter-driven constitutive expression plasmid which expresses the 110-nucleotide mir-143 pri-miRNA sequence (SEQ ID NO: 38), to act as a mir-143 pri-miRNA mimic. The pCR3-pri-mir control (“pri-mir-control”) is a CMV promotor-driven constitutive expression plasmid which is designed to express a similar 110-nucleotide pri-miRNA sequence ([…] CAGC; SEQ ID NO: 862) wherein the mature mir-143 sequence has been replaced with an unrelated sequence and the predicted complementary strand opposite it within the pri-miRNA structure is replaced with a nearly complementary sequence in order to preserve the stem loop as well as the bulge structure of the natural mir-143 pri-miRNA. Additionally, in order to test the effect of an oligomeric compound targeting a miRNA, the T-REx™-HeLa cells were also transfected with the uniform 2′-MOE phosphorothioate (PS) antisense oligomeric compound ISIS Number 327901 (SEQ ID NO: 319), targeted to mir-143 previously described.
# Twenty-four hours post-transfection, cells were trypsinized and GFP fluorescence was analyzed by flow cytometry.
substance,measurement,setting,value
"129690 (antisense TTAGAATACGTCGCGTTATG; sugars from the 5' end e5 d10 e5, all phosphorothioate, methylation of C not given here) [compound 129690]","IL-6 mRNA expression, % UTC","IL-6 mRNA; 75 nM, +IFN",92 % UTC
same,"IL-6 mRNA expression, % UTC","IL-6 mRNA; 75 nM, −IFN",98 % UTC
same,"IL-6 mRNA expression, % UTC","IL-6 mRNA; 150 nM, +IFN",86 % UTC
same,"IL-6 mRNA expression, % UTC","IL-6 mRNA; 150 nM, −IFN",99 % UTC
same,"IL-6 mRNA expression, % UTC","IL-6 mRNA; 300 nM, +IFN",94 % UTC
same,"IL-6 mRNA expression, % UTC","IL-6 mRNA; 300 nM, −IFN",109 % UTC
same,"IL-6 mRNA expression, % UTC","IL-6 mRNA; 600 nM, +IFN",203 % UTC
same,"IL-6 mRNA expression, % UTC","IL-6 mRNA; 600 nM, −IFN",258 % UTC
"CTAGTGGTCCTAAACATTTCAC (chemistry not given here) [ISIS 327878, uniform 2′-MOE PS; targets mir-203]",percentage of cells in the G2/M phase,[1],increased percentage of cells in the G2/M phase
same,percentage of cells with hypodiploid DNA content (subG1),[1],increased percentage of cells with hypodiploid DNA content
"ds-mir-143: double-stranded RNA of ISIS 342199 hybridized to its perfect complement ISIS 342200 (sense UGAGAUGAAGCACUGUAGCUCA; antisense UGAGCUACAGUGCUUCAUCUCA; RNA, backbone not given here)",expression of GFP from the pcDNA3.1/NT-GFP-mir-143 sensor plasmid,[2],inhibited expression of GFP from the sensor plasmid in a dose dependent manner
